Results: ChEMBL document CHEMBL1201862, “PubChem BioAssay data set” (2004)
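Cells were grown in 96-well plates and exposed to each compound for 48 hours at five concentrations; endpoints were interpolated linearly between bracketing concentrations, or set to the highest concentration if not reached. At the GI50, growth is halved.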 Calls of active or inactive are those of the source. No stated cut-off is given here; in the data, active = GI50 up to about 1.1 µM and inactive = higher.

Legend:
Assay in all cases: NCI-60 cell line screen, 48 h
A549 = tested on: A549
DU-145 = tested on: DU-145
HCC 2998 = tested on: HCC 2998
HL-60 = tested on: HL-60
IGROV-1 = tested on: IGROV-1
LOX IMVI = tested on: LOX IMVI
MCF7 = tested on: MCF7
MDA-MB-231 = tested on: MDA-MB-231
MDA-MB-435 = tested on: MDA-MB-435
MDA-N = tested on: MDA-N
MOLT-4 = tested on: MOLT-4
OVCAR-8 = tested on: OVCAR-8
SF-268 = tested on: SF-268
SK-MEL-5 = tested on: SK-MEL-5
SN12C = tested on: SN12C
SNB-75 = tested on: SNB-75
SW-620 = tested on: SW-620
UACC-257 = tested on: UACC-257
EKVX = tested on: EKVX

## CN1CCN(C(=S)N(C)C(=O)c2ccc(Cl)cc2)CC1
A549
  GI50: > 100 µM (inactive)
DU-145
  GI50: > 100 µM (inactive)
HCC 2998
  GI50: > 100 µM (inactive)
HL-60
  GI50: > 100 µM (inactive)
IGROV-1
  GI50: > 100 µM (inactive)
LOX IMVI
  GI50: > 100 µM (inactive)
MCF7
  GI50: > 100 µM (inactive)
MDA-MB-231
  GI50: > 100 µM (inactive)
MDA-MB-435
  GI50: > 100 µM (inactive)
MDA-N
  GI50: > 100 µM (inactive)
MOLT-4
  GI50: > 100 µM (inactive)
OVCAR-8
  GI50: > 100 µM (inactive)
SF-268
  GI50: > 100 µM (inactive)
SK-MEL-5
  GI50: > 100 µM (inactive)
SN12C
  GI50: > 100 µM (inactive)
SNB-75
  GI50: > 100 µM (inactive)
SW-620
  GI50: > 100 µM (inactive)
UACC-257
  GI50: > 100 µM (inactive)

## COc1ccc(Oc2nc3cc(C(F)(F)F)ccc3nc2C(C)C)cc1
A549
  GI50: 31.1 µM (inactive)
DU-145
  GI50: 27.2 µM (inactive)
EKVX
  GI50: 19.2 µM (inactive)
HCC 2998
  GI50: 20.1 µM (inactive)
HL-60
  GI50: 18.7 µM (inactive)
IGROV-1
  GI50: 23.3 µM (inactive)
LOX IMVI
  GI50: 15.3 µM (inactive)
MCF7
  GI50: 18.8 µM (inactive)
MDA-MB-231
  GI50: 24.7 µM (inactive)
MDA-MB-435
  GI50: 30.1 µM (inactive)
MDA-N
  GI50: 35.4 µM (inactive)
MOLT-4
  GI50: 15.7 µM (inactive)
OVCAR-8
  GI50: 25.2 µM (inactive)
SF-268
  GI50: 32.7 µM (inactive)
SK-MEL-5
  GI50: 22.2 µM (inactive)
SN12C
  GI50: 24.5 µM (inactive)
SNB-75
  GI50: 25.4 µM (inactive)
SW-620
  GI50: 30.8 µM (inactive)
UACC-257
  GI50: 26.1 µM (inactive)

## O=C1C(Cl)=C(Sc2nnc3c4ccccc4c4ccccc4c3n2)C(=O)c2ccccc21
A549
  GI50: 24.6 µM (inactive)
DU-145
  GI50: 8.81 µM (inactive)
EKVX
  GI50: 17.6 µM (inactive)
HCC 2998
  GI50: 32.4 µM (inactive)
HL-60
  GI50: 2.74 µM (inactive)
IGROV-1
  GI50: 1.08 µM (active)
LOX IMVI
  GI50: 4.57 µM (inactive)
MCF7
  GI50: 12.6 µM (inactive)
MDA-MB-231
  GI50: 3.51 µM (inactive)
MDA-MB-435
  GI50: 1.85 µM (inactive)
MDA-N
  GI50: 1.92 µM (inactive)
MOLT-4
  GI50: 13.9 µM (inactive)
OVCAR-8
  GI50: 8.47 µM (inactive)
SF-268
  GI50: 27.5 µM (inactive)
SK-MEL-5
  GI50: 7.8 µM (inactive)
SN12C
  GI50: 16.6 µM (inactive)
SNB-75
  GI50: 2.97 µM (inactive)
SW-620
  GI50: 23.1 µM (inactive)
UACC-257
  GI50: 16.3 µM (inactive)

## CCN1C/C(=C\c2cc(OC)c(OC)c(OC)c2)C2=NN(c3ccccc3)C(c3cc(OC)c(OC)c(OC)c3)C2C1 (configuration not stated)
A549
  GI50: 1.5 µM (inactive)
DU-145
  GI50: 2.99 µM (inactive)
EKVX
  GI50: 2.09 µM (inactive)
HCC 2998
  GI50: 1.07 µM (active)
HL-60
  GI50: 3.03 µM (inactive)
IGROV-1
  GI50: 6.43 µM (inactive)
LOX IMVI
  GI50: 2.08 µM (inactive)
MCF7
  GI50: 6 µM (inactive)
MDA-MB-231
  GI50: 0.525 µM (active)
MDA-MB-435
  GI50: 1.52 µM (inactive)
MDA-N
  GI50: 2.41 µM (inactive)
MOLT-4
  GI50: 5.05 µM (inactive)
OVCAR-8
  GI50: 1.61 µM (inactive)
SF-268
  GI50: 0.365 µM (active)
SK-MEL-5
  GI50: 3.74 µM (inactive)
SN12C
  GI50: 2.47 µM (inactive)
SNB-75
  GI50: 0.268 µM (active)
SW-620
  GI50: 2.56 µM (inactive)
UACC-257
  GI50: 3.35 µM (inactive)

## CC(C)(C)[Si](C)(C)OCC1CCC(n2cnc3c(=O)[nH]cnc32)O1 (configuration not stated)
A549
  GI50: > 100 µM (inactive)
DU-145
  GI50: > 100 µM (inactive)
EKVX
  GI50: > 100 µM (inactive)
HCC 2998
  GI50: > 100 µM (inactive)
HL-60
  GI50: 74.8 µM (inactive)
IGROV-1
  GI50: > 100 µM (inactive)
LOX IMVI
  GI50: > 100 µM (inactive)
MCF7
  GI50: > 100 µM (inactive)
MDA-MB-231
  GI50: > 100 µM (inactive)
MDA-MB-435
  GI50: > 100 µM (inactive)
MDA-N
  GI50: > 100 µM (inactive)
MOLT-4
  GI50: 30.2 µM (inactive)
OVCAR-8
  GI50: 94.4 µM (inactive)
SF-268
  GI50: > 100 µM (inactive)
SK-MEL-5
  GI50: 32.5 µM (inactive)
SN12C
  GI50: > 100 µM (inactive)
SNB-75
  GI50: 20.3 µM (inactive)
SW-620
  GI50: > 100 µM (inactive)
UACC-257
  GI50: > 100 µM (inactive)

## CCCCCCCCCCCCCC/C(C(=O)O)=C(\C)C(=O)O
A549
  GI50: > 100 µM (inactive)
DU-145
  GI50: > 100 µM (inactive)
EKVX
  GI50: > 100 µM (inactive)
HCC 2998
  GI50: > 100 µM (inactive)
HL-60
  GI50: 58.3 µM (inactive)
IGROV-1
  GI50: > 100 µM (inactive)
LOX IMVI
  GI50: > 100 µM (inactive)
MCF7
  GI50: > 100 µM (inactive)
MDA-MB-231
  GI50: > 100 µM (inactive)
MDA-MB-435
  GI50: > 100 µM (inactive)
MDA-N
  GI50: > 100 µM (inactive)
MOLT-4
  GI50: > 100 µM (inactive)
OVCAR-8
  GI50: > 100 µM (inactive)
SF-268
  GI50: > 100 µM (inactive)
SK-MEL-5
  GI50: > 100 µM (inactive)
SN12C
  GI50: > 100 µM (inactive)
SNB-75
  GI50: > 100 µM (inactive)
SW-620
  GI50: > 100 µM (inactive)
UACC-257
  GI50: > 100 µM (inactive)

## Fc1ccc2c(c1)nc1n2C(c2c(F)cccc2F)SC1 (configuration not stated)
A549
  GI50: 48.5 µM (inactive)
DU-145
  GI50: > 100 µM (inactive)
EKVX
  GI50: 29.2 µM (inactive)
HCC 2998
  GI50: 71.6 µM (inactive)
HL-60
  GI50: 20.7 µM (inactive)
IGROV-1
  GI50: 64.9 µM (inactive)
LOX IMVI
  GI50: 45.7 µM (inactive)
MCF7
  GI50: 42.1 µM (inactive)
MDA-MB-231
  GI50: 91.8 µM (inactive)
MDA-MB-435
  GI50: 49.9 µM (inactive)
MDA-N
  GI50: 28.2 µM (inactive)
MOLT-4
  GI50: 25.8 µM (inactive)
OVCAR-8
  GI50: 37.1 µM (inactive)
SF-268
  GI50: 53.2 µM (inactive)
SK-MEL-5
  GI50: 21.8 µM (inactive)
SN12C
  GI50: 70.8 µM (inactive)
SNB-75
  GI50: 28.2 µM (inactive)
SW-620
  GI50: 69.3 µM (inactive)
UACC-257
  GI50: 52.7 µM (inactive)
